ChEMBL document CHEMBL5537181 (J Med Chem, 2024)
The source made the active and inactive calls. No cut-off for these calls is given here. Where a SMILES comes first, the peptide text is derived from it. Bridges are numbered along the chain shown (N, C = ends).

What follows are compounds tested against Neuronal acetylcholine receptor; alpha9/alpha10 (Homo sapiens) (UniProt Q9UGM1+Q9GZZ6) (assay: Antagonist activity at human wild type alpha9alpha10 nAChR expressed in acetylcholine-induced Xenopus laevis oocytes assessed as inhibition of acetylcholine-induced current at 30 nM by two electrode voltage-clamp assay relative to control). Conditions: Oocyte.
Format: cell-based
Work on CC[C@@H](C)[C@@H](NC(=O)[C@@H](CCCNC(=N)N)NC(=O)[C@@H](CCCNC(=N)N)NC(=O)[C@@H](Cc1ccc(O)cc1)NC(=O)[C@@H](CCCNC(=N)N)NC(=O)[C@@H](CCCNC(=N)N)NC(=O)[C@@H](CCCNC(=N)N)NC(=O)[C@@H](CCCNC(=N)N)NC(=O)[C@@H](CC(=O)O)NC(=O)[C@@H](Cc1ccc(O)cc1)NC(=O)[C@H]1CCCN1C(=O)[C@@H](CO)NC(=O)[C@@H](CCCNC(=N)N)NC(=O)[C@@H](Cc1ccc(O)cc1)NC(=O)[C@@H](CCCNC(=N)N)NC(=O)CN)C(=O)N[C@@H](C(=O)N[C@H](CC(=O)O)C(N)=O)[C@H](C)O yielded an inhibition of 25%. N=C(N)NCCC[C@@H]1NC(=O)[C@H](CCCNC(=N)N)NC(=O)[C@H](CCCNC(=N)N)NC(=O)[C@H](CCCNC(=N)N)NC(=O)[C@H](CC(=O)O)NC(=O)[C@H](Cc2ccc(O)cc2)NC(=O)[C@@H]2CCCN2C(=O)[C@H](CO)NC(=O)[C@H](CCCNC(=N)N)NC(=O)[C@@H](N)CSSC[C@@H](C(N)=O)NC(=O)[C@H](Cc2ccc(O)cc2)NC1=O (H-CRSPYDRRRRYC-NH2; disulfide 1-12) was tested, and the inhibition was 25%. CC[C@H](C)[C@H](NC(=O)[C@H](CCCNC(=N)N)NC(=O)[C@H](CCCNC(=N)N)NC(=O)[C@@H]1CSSC[C@H](N)C(=O)N[C@@H](CCCNC(=N)N)C(=O)N[C@@H](CO)C(=O)N2CCC[C@H]2C(=O)N[C@@H](Cc2ccc(O)cc2)C(=O)N[C@@H](CC(=O)O)C(=O)N[C@@H](CCCNC(=N)N)C(=O)N[C@@H](CCCNC(=N)N)C(=O)N[C@@H](CCCNC(=N)N)C(=O)N[C@@H](CCCNC(=N)N)C(=O)N[C@@H](Cc2ccc(O)cc2)C(=O)N1)C(=O)N[C@H](C(=O)N[C@@H](CC(=O)O)C(N)=O)[C@@H](C)O (H-CRSPYDRRRRYCRRITD-NH2; disulfide 1-12) gave an inhibition of 25%. CC[C@H](C)[C@H](NC(=O)[C@H](CCCNC(=N)N)NC(=O)[C@H](CCCNC(=N)N)NC(=O)[C@@H]1CSSC[C@H](NC(=O)[C@H](Cc2ccc(O)cc2)NC(=O)[C@H](CCCNC(=N)N)NC(=O)CN)C(=O)N[C@@H](CCCNC(=N)N)C(=O)N[C@@H](CO)C(=O)N2CCC[C@H]2C(=O)N[C@@H](Cc2ccc(O)cc2)C(=O)N[C@@H](CC(=O)O)C(=O)N[C@@H](CCCNC(=N)N)C(=O)N[C@@H](CCCNC(=N)N)C(=O)N[C@@H](CCCNC(=N)N)C(=O)N[C@@H](CCCNC(=N)N)C(=O)N[C@@H](Cc2ccc(O)cc2)C(=O)N1)C(=O)N[C@H](C(=O)N[C@@H](CC(=O)O)C(N)=O)[C@@H](C)O (H-GRYCRSPYDRRRRYCRRITD-NH2; disulfide 4-15) was tested, and the inhibition was 25%. For CC[C@H](C)[C@H](NC(=O)[C@H](CCCNC(=N)N)NC(=O)[C@H](CCCNC(=N)N)NC(=O)[C@@H]1CSSC[C@H](NC(=O)[C@H](Cc2ccc(O)cc2)NC(=O)[C@@H](N)CCCNC(=N)N)C(=O)N[C@@H](CCCNC(=N)N)C(=O)N[C@@H](CO)C(=O)N2CCC[C@H]2C(=O)N[C@@H](Cc2ccc(O)cc2)C(=O)N[C@@H](CC(=O)O)C(=O)N[C@@H](CCCNC(=N)N)C(=O)N[C@@H](CCCNC(=N)N)C(=O)N[C@@H](CCCNC(=N)N)C(=O)N[C@@H](CCCNC(=N)N)C(=O)N[C@@H](Cc2ccc(O)cc2)C(=O)N1)C(=O)N[C@H](C(=O)N[C@@H](CC(=O)O)C(N)=O)[C@@H](C)O (H-RYCRSPYDRRRRYCRRITD-NH2; disulfide 3-14), the inhibition was 25%. CC[C@H](C)[C@H](NC(=O)[C@H](CCCNC(=N)N)NC(=O)[C@H](CCCNC(=N)N)NC(=O)[C@@H]1CSSC[C@H](NC(=O)[C@@H](N)Cc2ccc(O)cc2)C(=O)N[C@@H](CCCNC(=N)N)C(=O)N[C@@H](CO)C(=O)N2CCC[C@H]2C(=O)N[C@@H](Cc2ccc(O)cc2)C(=O)N[C@@H](CC(=O)O)C(=O)N[C@@H](CCCNC(=N)N)C(=O)N[C@@H](CCCNC(=N)N)C(=O)N[C@@H](CCCNC(=N)N)C(=O)N[C@@H](CCCNC(=N)N)C(=O)N[C@@H](Cc2ccc(O)cc2)C(=O)N1)C(=O)N[C@H](C(=O)N[C@@H](CC(=O)O)C(N)=O)[C@@H](C)O (H-YCRSPYDRRRRYCRRITD-NH2; disulfide 2-13) gave an inhibition of 25%. In the case of CC[C@H](C)[C@@H]1NC(=O)[C@H](CCCNC(=N)N)NC(=O)[C@H](CCCNC(=N)N)NC(=O)[C@@H]2CSSC[C@H](NC(=O)[C@H](Cc3ccc(O)cc3)NC(=O)[C@H](CCCNC(=N)N)NC(=O)CNC(=O)[C@H](CC(=O)O)NC(=O)[C@H]([C@@H](C)O)NC1=O)C(=O)N[C@@H](CCCNC(=N)N)C(=O)N[C@@H](CO)C(=O)N1CCC[C@H]1C(=O)N[C@@H](Cc1ccc(O)cc1)C(=O)N[C@@H](CC(=O)O)C(=O)N[C@@H](CCCNC(=N)N)C(=O)N[C@@H](CCCNC(=N)N)C(=O)N[C@@H](CCCNC(=N)N)C(=O)N[C@@H](CCCNC(=N)N)C(=O)N[C@@H](Cc1ccc(O)cc1)C(=O)N2 (cyclo(CRRITDGRYCRSPYDRRRRY); disulfide 1-10), the inhibition is reported as 25%. With H-ARYRSPYDRRRRYRRITD-NH2 the inhibition was 20%. For H-DRYRSPYDRRRRYRRITD-NH2, the inhibition was 0%. H-GAYRSPYDRRRRYRRITD-NH2 was tested, and the inhibition was 20%. H-GDYRSPYDRRRRYRRITD-NH2 gave an inhibition of 0%. Work on H-GRARSPYDRRRRYRRITD-NH2 yielded an inhibition of 20%. H-GRRRSPYDRRRRYRRITD-NH2 gave an inhibition of 10%. In the case of H-GRYAAPYDRRRRYRRITD-NH2, the inhibition is reported as 20%. For H-GRYASPYDRRRRYRRITD-NH2, the inhibition was 20%. H-GRYDSPYDRRRRYRRITD-NH2 showed an inhibition of 0%. Work on H-GRYRDPYDRRRRYRRITD-NH2 yielded an inhibition of 0%. H-GRYRSAYDRRRRYRRITD-NH2 was tested, and the inhibition was 20%. H-GRYRSDYDRRRRYRRITD-NH2 showed an inhibition of 0%. H-GRYRSPADRRRRYRRITD-NH2 was tested, and the inhibition was 20%. H-GRYRSPRDRRRRYRRITD-NH2 showed an inhibition of 10%. H-GRYRSPYARRRRYRRITD-NH2 showed an inhibition of 20%. With H-GRYRSPYDARRRYRRITD-NH2 the inhibition was 20%. Work on H-GRYRSPYDDRRRYRRITD-NH2 yielded an inhibition of 0%. With H-GRYRSPYDRARRYRRITD-NH2 the inhibition was 20%. H-GRYRSPYDRDRRYRRITD-NH2 showed an inhibition of 0%. H-GRYRSPYDRRDRYRRITD-NH2 gave an inhibition of 0%. Compound H-GRYRSPYDRRRDYRRITD-NH2 has an inhibition of 0%. H-GRYRSPYDRRRRDRRITD-NH2 was tested, and the inhibition was 0%. H-GRYRSPYDRRRRRRRITD-NH2 was tested, and the inhibition was “inactive”. H-GRYRSPYDRRRRYDRITD-NH2 gave an inhibition of 0%. H-GRYRSPYDRRRRYRAITD-NH2 showed an inhibition of 20%. H-GRYRSPYDRRRRYRDDTD-NH2 showed an inhibition of 0%. In the case of H-GRYRSPYDRRRRYRDIDD-NH2, the inhibition is reported as 0%. Compound H-GRYRSPYDRRRRYRDITD-NH2 has an inhibition of 0%. With H-GRYRSPYDRRRRYRRATD-NH2 the inhibition was 20%. With H-GRYRSPYDRRRRYRRIAD-NH2 the inhibition was 20%. Compound H-GRYRSPYDRRRRYRRIRD-NH2 has an inhibition of 10%. In the case of H-GRYRSPYDRRRRYRRITA-NH2, the inhibition is reported as 20%. For H-GRYRSPYDRRRRYRRITR-NH2, the inhibition was “inactive”. In the case of H-GRYRSPYRRRRRYRRITD-NH2, the inhibition is reported as 10%. Work on H-GRYRSRYDRRRRYRRITD-NH2 yielded an inhibition of 10%. For H-RRYRSPYDRRRRYRRITD-NH2, the inhibition was 10%.

Same assay, conditions: Oocyte, filed as antagonist
H-GRDRSPYDRRRRYRRITD-NH2 was tested, and the inhibition was “Active”. H-GRYRRPYDRRRRYRRITD-NH2 was tested, and the inhibition was > 80%. For H-GRYRSPDDRRRRYRRITD-NH2, the inhibition was “Active”. For H-GRYRSPYDRRARYRRITD-NH2, the inhibition was “Active”. For H-GRYRSPYDRRRAYRRITD-NH2, the inhibition was “Active”. For H-GRYRSPYDRRRRARRITD-NH2, the inhibition was “Active”. In the case of H-GRYRSPYDRRRRYARITD-NH2, the inhibition is reported as “Active”. H-GRYRSPYDRRRRYRRRTD-NH2 was tested, and the inhibition was > 80%.

What follows are compounds tested against Voltage-dependent N-type calcium channel subunit alpha-1B (Homo sapiens, UniProt Q00975) (assay: Inhibition of human Cav2.2 channel transfected in HEK293T cells co-expressed with human GABAB receptor assessed as inhibition of Cav2.2-mediated Ba2+ current at 100 nM measured for 3 to 5 days by whole-cell patch clamp assay). Conditions: time 3-5 day.
Chain of Voltage-dependent N-type calcium channel subunit alpha-1B (Q00975 whole entry, looked up): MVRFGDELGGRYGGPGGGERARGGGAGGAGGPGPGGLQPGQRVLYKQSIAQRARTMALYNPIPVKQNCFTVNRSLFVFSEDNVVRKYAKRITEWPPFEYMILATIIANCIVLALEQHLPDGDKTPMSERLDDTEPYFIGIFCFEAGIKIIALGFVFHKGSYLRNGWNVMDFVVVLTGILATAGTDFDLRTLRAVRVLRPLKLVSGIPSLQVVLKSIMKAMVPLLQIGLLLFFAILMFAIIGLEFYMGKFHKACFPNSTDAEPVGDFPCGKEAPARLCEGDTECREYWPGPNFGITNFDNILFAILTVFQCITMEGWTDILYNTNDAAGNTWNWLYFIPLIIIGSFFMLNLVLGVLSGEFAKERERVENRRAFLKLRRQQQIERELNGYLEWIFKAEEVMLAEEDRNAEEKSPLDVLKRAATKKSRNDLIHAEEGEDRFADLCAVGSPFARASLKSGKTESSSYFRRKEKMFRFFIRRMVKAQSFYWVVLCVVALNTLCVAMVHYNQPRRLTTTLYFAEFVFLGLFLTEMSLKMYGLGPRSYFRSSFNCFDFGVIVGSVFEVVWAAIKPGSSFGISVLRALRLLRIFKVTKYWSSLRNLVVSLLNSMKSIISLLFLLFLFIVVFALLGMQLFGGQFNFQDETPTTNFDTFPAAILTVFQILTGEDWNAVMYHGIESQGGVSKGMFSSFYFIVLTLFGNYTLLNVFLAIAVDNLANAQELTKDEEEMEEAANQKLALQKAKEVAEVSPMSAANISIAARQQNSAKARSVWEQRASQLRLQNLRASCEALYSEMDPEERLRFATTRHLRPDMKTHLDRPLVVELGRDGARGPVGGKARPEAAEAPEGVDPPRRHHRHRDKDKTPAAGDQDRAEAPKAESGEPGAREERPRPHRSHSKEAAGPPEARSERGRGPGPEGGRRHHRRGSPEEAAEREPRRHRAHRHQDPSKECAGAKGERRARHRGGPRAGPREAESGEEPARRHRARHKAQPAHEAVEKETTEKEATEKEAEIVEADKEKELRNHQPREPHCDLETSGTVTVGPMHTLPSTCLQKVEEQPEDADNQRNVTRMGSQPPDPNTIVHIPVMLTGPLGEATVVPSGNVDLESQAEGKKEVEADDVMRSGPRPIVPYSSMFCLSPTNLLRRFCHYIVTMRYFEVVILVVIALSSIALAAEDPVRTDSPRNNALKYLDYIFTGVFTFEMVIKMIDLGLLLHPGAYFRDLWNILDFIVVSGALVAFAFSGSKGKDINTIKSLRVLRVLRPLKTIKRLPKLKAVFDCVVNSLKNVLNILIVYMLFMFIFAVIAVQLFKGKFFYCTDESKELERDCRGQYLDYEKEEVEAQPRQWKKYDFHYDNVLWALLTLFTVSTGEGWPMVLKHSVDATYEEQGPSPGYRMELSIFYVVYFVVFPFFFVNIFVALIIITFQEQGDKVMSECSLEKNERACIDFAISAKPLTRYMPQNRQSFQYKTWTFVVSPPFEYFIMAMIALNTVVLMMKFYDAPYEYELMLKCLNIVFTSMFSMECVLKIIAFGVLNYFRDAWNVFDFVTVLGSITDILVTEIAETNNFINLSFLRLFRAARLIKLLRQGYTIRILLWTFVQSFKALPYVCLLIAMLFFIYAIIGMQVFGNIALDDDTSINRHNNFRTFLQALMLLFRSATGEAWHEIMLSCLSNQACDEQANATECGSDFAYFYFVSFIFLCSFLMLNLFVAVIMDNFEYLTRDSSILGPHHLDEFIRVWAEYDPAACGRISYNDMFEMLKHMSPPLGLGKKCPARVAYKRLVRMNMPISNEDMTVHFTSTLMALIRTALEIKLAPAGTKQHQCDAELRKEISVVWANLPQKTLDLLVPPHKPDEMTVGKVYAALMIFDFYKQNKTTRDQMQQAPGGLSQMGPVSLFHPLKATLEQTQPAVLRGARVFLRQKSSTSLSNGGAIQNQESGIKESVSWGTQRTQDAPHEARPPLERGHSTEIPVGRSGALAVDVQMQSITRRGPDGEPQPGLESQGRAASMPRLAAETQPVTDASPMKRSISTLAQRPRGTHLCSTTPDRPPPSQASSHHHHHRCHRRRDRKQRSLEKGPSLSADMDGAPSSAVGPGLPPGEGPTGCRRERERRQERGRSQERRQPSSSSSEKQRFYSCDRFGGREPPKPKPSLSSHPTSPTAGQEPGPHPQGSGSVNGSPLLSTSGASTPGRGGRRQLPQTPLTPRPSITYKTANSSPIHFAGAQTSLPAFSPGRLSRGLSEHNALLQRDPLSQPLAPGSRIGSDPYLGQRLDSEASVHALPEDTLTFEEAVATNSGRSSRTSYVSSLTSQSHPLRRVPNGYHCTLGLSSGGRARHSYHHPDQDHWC
Format: cell-based
H-GRARSPYDRRRRYRRITD-NH2 gave an inhibition of 10%. H-GRYRSPADRRRRYRRITD-NH2 was tested, and the inhibition was 60%. H-GRYRSPYARRRRYRRITD-NH2 gave an inhibition of 50%. In the case of H-GRYRSPYDARRRYRRITD-NH2, the inhibition is reported as 50%. With H-GRYRSPYDRRRAYRRITD-NH2 the inhibition was 10%. Compound H-GRYRSPYDRRRRYARITD-NH2 has an inhibition of 10%. For H-GRYRSPYDRRRRYRRATD-NH2, the inhibition was 80%. Compound H-GRYRSPYDRRRRYRRITA-NH2 has an inhibition of 10%.
